# Test results taken from patent publication US6337348B1, “Oxy-vanadium (iv) complexes having spermicidal activity” (Parker Hughes Institute, priority 1998, dated 2002).
# How the values were obtained:
# Assay type in all cases: cell-based
# human sperm [1] = assay: Kinetics of sperm immobilization (timed CASA); settings: for T½ of sperm immobilization (time for 50% motility loss): 200 μM, 37° C.
# Description: To test the effect of duration of incubation on sperm immobilization in the presence of oxovanadium (IV) complexes, a motile fraction of sperm 10^7/ml) was incubated at 37° C. in 1 ml of BWW−0.3% BSA in the presence of 200 μM each of the complexes or 0.2% DMSO alone. At timed intervals (every 5 and 10 minutes) aliquots (4 μl) were transferred to two 20 μm Microcell (Conception Technologies) chambers, and sperm motility was assessed by CASA.
# (§1) For CASA, 4 μl each of sperm suspension was loaded into two 20 μm Microcell chambers placed onto a counting chamber at 37° C. At least 5-8 fields per chamber were scanned for analysis using a Hamilton Thorne Integrated Visual Optical System (IVOS) version 10 instrument (Hamilton Thorne Research Inc., Danvers, Mass.). Each field was recorded for 30 seconds. The Hamilton Thorne computer calibrations were set at 30 frames at a frame rate of 30 images/seconds. Other settings were as follows: minimum contrast 8; minimum size 6; low-size gate, 1.0; high-size gate,2.9; low-intensity gate, 0.6; high-intensity gate, 1.4; phase-contrast illumination; low path velocity at 10 μm/seconds and threshold straightness at 80%; magnification factor, 1.95. The performance of the analyzer was periodically checked using the playback function.
# human sperm [2] = assay: Flow cytometric quantitation of sperm acrosome reaction (anti-CD46 mAb binding); settings: tested at 100 μM, 3 hours, 37° C., mean of two experiments
# Description: In experiments designed to assess the comparative effects of oxovanadium (IV) complexes and N-9 on sperm acrosome reaction, motile fractions of sperm (10^7/ml) prepared from a single donor were incubated in 1 ml of BWW−0.3% BSA in the presence of 100 μM each of the vanadocene complexes, VO(phen), VO(phen)2, VO(Me2—phen), VO(Me2—phen)2, VO(Cl—phen), VO(Cl—phen)2, VO(bipy), VO(bipy)2, VO(Me2—bipy), VO(Me2—bipy)2, and VO(Br,OH—acph)2 in 0.1% DMSO, N-9, or DMSO (0.1%) alone at 37° C. After 3 hours, 5 μg/ml of purified, phycoerythrin (PE)-conjugated murine anti-CD46 monoclonal antibody (mAb; clone 122-2; Research Diagnostics, Flanders, N.J.) was added and the sperm suspensions incubated for an additional 30 minutes. The suspensions was washed in Tyrode's salt solution (Sigma) containing 1% BSA (1% TBSA) and the percentage of CD46-positive sperm were analyzed by flow cytometry using a FACS Vantage flow cytometer (Becton Dickinson, Mountain View, Calif.), as described previously (DeCruz et al., 1996, Biol Reprod. 54:1217-1228; DeCruz et al., 1992, Fertil. Seril., 58:633-636). Two separate experiments were performed to quantitate acrosomal loss following exposure of sperm to oxovanadium (IV) complexes.
# human sperm [3] = assay: Sperm immobilization assay (SIA), motility by CASA; settings: for EC50: read-out: EC50 (concentration that decreases the proportion of motile sperm by 50%), 3 hours incubation at 37° C., BWW-0.3% BSA, serial 2-fold dilutions 250 μM to 1.9 μM, mean of two experiments
# Description: To evaluate the spermicidal effects of complexes of oxovanadium (IV), VO(phen), VO(phen)2, VO(Me2—phen), VO(Me2—phen)2, VO(Cl—phen), VO(Cl—phen)2], VO(bipy), VO(bipy)2, VO(Me2—bipy), VO(Me2—bipy)2, and VO(Br,OH—acph)2, a highly motile fraction of pooled donor sperm (N=5) was prepared by discontinuous (90−45%). Percoll gradient (Conception Technologies, San Diego, Calif.) centrifugation and the “swim-up” method as described previously (Aitken et al., 1989, Biol. Reprod. 40:183-197). All donor specimens were obtained after informed consent and in compliance with the guidelines of the Hughes Institutional Review Board. Motile sperm (≳10×10^6/ml) were suspended in 1 ml of Biggers, Whitten, and Whittingham's medium (BWW) containing 0.3% BSA (fraction V; Sigma Chemical Co., St. Louis, Mo.) in the presence and absence of serial 2-fold dilutions of test substance (250 μM−1.9 μM) in 0.25% dimethyl sulfoxide (DMSO). For each experiment, fresh stock solutions (100 mM) of vanadium compounds were prepared in DMSO. A corresponding volume of DMSO (0.25%) was added to control sperm suspension. After 3 hours of incubation at 37° C., the percentage of motile sperm was evaluated by computer-assisted sperm motion analysis (CASA) as described previously (Aitken et al., 1989, Supra). The percentages of motilities were compared with those of sham-treated control suspensions of motile sperm.
# as §1
# Results for the various numerical sperm functional parameters are presented as mean±standard deviation (SD) values. Comparison between oxovanadium (IV) complex-treated and control sperm relative to sperm motility parameters and apoptosis were performed using paired, two-tailed Student's T-test. A p value of <0.05 was considered significant.
Compound,T½ of sperm immobilization (time for 50% motility loss) (human sperm [1]) [min],Anti-CD46 positive sperm (%) (human sperm [2]),Anti-CD46 positive sperm (%) (human sperm [2]; listed as VO(Cl—phen)2),EC50 (human sperm [3]) [µM],"Anti-CD46 positive sperm (%) (human sperm [2]; listed as VO(Br,OH—acph)2)",time of exposure to complete sperm motility loss (human sperm [1]) [min],fold more potent than N-9 (spermicidal activity) (human sperm [3]; identical experimental conditions) [fold]
"Clc1cc2cccnc2c2ncccc12.Clc1cc2cccnc2c2ncccc12.O.O=S(=O)([O-])[O-].[O]=[V+2] [VO(Cl-phen)2, (aqua)bis(5-chloro-1,10-phenanthroline)oxovanadium (IV) sulfate]",7.3,21.5,21.5,5.5,–,≤ 10,14
"Clc1cc2cccnc2c2ncccc12.O.O.O=S(=O)([O-])[O-].[O]=[V+2] [VO(Cl-phen), (diaqua)(5-chloro-1,10-phenanthroline)oxovanadium (IV) sulfate]",–,11.2,–,39.1,–,–,–
"Cc1ccnc2c1ccc1c(C)ccnc12.O.O.O=S(=O)([O-])[O-].[O]=[V+2] [VO(Me2-phen), (diaqua)(4,7-dimethyl-1,10-phenanthroline)oxovanadium (IV) sulfate]",–,14.0,–,20.5,–,–,–
"O.O=S(=O)([O-])[O-].[O-2].[V+4].c1ccc(-c2ccccn2)nc1.c1ccc(-c2ccccn2)nc1 [VO(bipy)2, (aqua)bis(2,2′-bipyridyl)oxovanadium (IV) sulfate]",–,4.7,–,35.3,–,–,–
"O.O.O=S(=O)([O-])[O-].[O]=[V+2].c1ccc(-c2ccccn2)nc1 [VO(bipy), (diaqua)(2,2′-bipyridyl)oxovanadium (IV) sulfate]",–,6.1,–,118,–,–,–

# The next lines start with results.
T½ of sperm immobilization (time for 50% motility loss) (human sperm [1]) [min],Anti-CD46 positive sperm (%) (human sperm [2]),Anti-CD46 positive sperm (%) (human sperm [2]; listed as VO(Cl—phen)2),EC50 (human sperm [3]) [µM],"Anti-CD46 positive sperm (%) (human sperm [2]; listed as VO(Br,OH—acph)2)",Compound,time of exposure to complete sperm motility loss (human sperm [1]) [min],fold more potent than N-9 (spermicidal activity) (human sperm [3]; identical experimental conditions) [fold]
–,11.7,–,47.9,–,"Cc1ccnc2c1ccc1c(C)ccnc12.Cc1ccnc2c1ccc1c(C)ccnc12.O.O=S(=O)([O-])[O-].[O-2].[V+4] [VO(Me2-phen)2, (aqua)bis(4,7-dimethyl-1,10-phenanthroline)oxovanadium (IV) sulfate]",–,–
–,9.9,–,6.5,–,"O.O=S(=O)([O-])[O-].[O]=[V+2].c1cnc2c(c1)ccc1cccnc12.c1cnc2c(c1)ccc1cccnc12 [VO(phen)2, (aqua)bis(1,10-phenanthroline)oxovanadium (IV) sulfate]",–,–
–,9.7,–,37,–,"O.O.O=S(=O)([O-])[O-].[O]=[V+2].c1cnc2c(c1)ccc1cccnc12 [VO(phen), (diaqua)(1,10-phenanthroline)oxovanadium (IV) sulfate]",–,–
–,3.2,–,72.5,–,"(aqua)bis(4,4′-dimethyl-2,2′-bipyridyl)oxovanadium (IV) sulfate [VO(Me2-bipy)2]",–,–
–,6.4,–,83,–,"(diaqua)(4,4′-dimethyl-2,2′-bipyridyl)oxovanadium (IV) sulfate [VO(Me2-bipy)]",–,–
0.633,24.3,–,13.4,24.3,"bis(5′-bromo-2′-hydroxyacetophenone)oxovanadium (IV) [VO(Br,OH-acph)2]",≤ 2,–
